{
  "source": "patent US20140113014A1",
  "about": "“CHICORY FOR PREVENTION AND TREATMENT OF NEURODEGENERATION” (NESTEC S.A., priority 2011, published 2014)",
  "system": "primary cortical neurons",
  "assay": "Primary cortical neuron aging model, neuronal survival by NeuN count",
  "type": "cell-based, rat",
  "settings": "run in parallel with the chicory extract",
  "excerpt": "A primary cortical culture system to study the effects of compounds on neuronal aging has been developed and applied to study the effects of chicory on neuronal survival. This cell culture system has been developed as a model of neuronal aging in order to mimic processes which occur during normal aging of neurons without a neurotoxic challenge. With this model beneficial effects against physiological neurodegeneration during aging can be studied and compounds which increase neuronal survival can be identified. This is a different approach from the models described in the prior art in which the cells are challenged with a neurotoxic insult in order to induce different degrees of neurodegeneration. Using immune-cytochemical analysis of the antigen, NeuN (Neuronal Nuclei), which is a sensitive marker of neurodegeneration, a reliable method for examining the lifespan of cortical neurons in culture has been established. The sensitivity of NeuN can be attributed to its steady reduction in expression intensity as neurons degenerate, which is in contrast to many antigens whose expression can distinguish only between living and dead neurons. Between four and six weeks after plating, the cortical neurons begin to degenerate, leading to a […] in NeuN count over this time (FIG. 1A). […] All tests were fixed at a time point between 6 and 8 weeks. […]",
  "data": [
    {"smiles": "O=C(Nc1cccc([N+](=O)[O-])c1)c1cccc(S(=O)(=O)N2CCCCCC2)c1", "note": "[AK-1]", "values": [
      {"measurement": "neuroprotective effect of the positive control relative to the chicory extract", "result": "smaller neuroprotective effect than the chicory extract"},
      {"measurement": "neuroprotective effect of the positive control versus non-treated cells", "result": "significantly positive over non-treated cells"}
    ]}
  ]
}
